Measurements reported in patent publication US11590129B2, “Combination therapy with an antitumor alkaloid” (PHARMA MAR, S.A., priority 2010, dated 2023).

System: U87-MG tumors
Assay: Human brain tumor xenografts (U87-MG) in athymic nude mice, tumor volume % T/C
Assay type: in vivo
Description: Female athymic nude mice (Harlan Laboratories Models, S.L. (Barcelona, Spain) were utilized for all experiments. Animals were housed in individually ventilated cages, up to ten per cage in a 12-hour light-dark cycle at 21-23° C. and 40-60% humidity. The mice were allowed free access to irradiated standard rodent diet and sterilized water. Animals were acclimated for at least 5 days prior to tumor implantation with a tumor cell suspension.
The tumor model used in these studies was U87-MG cell line, which was obtained from the American Type Culture Collection (ATCC HTB-14™).
U87-MG cells were grown at 37° C. with 5% CO2 in Minimum Essential Medium Eagle (MEME). Each animal was subcutaneously implanted on the right flank, using 26G needle and a 1 cc syringe, with 5×10^6 U87-MG cells, from in vitro passage 5, in 0.05 mL suspension of 50% Matrigel and 50% serum free medium, without antibiotics.
PM01183 was provided in the form of vials of lyophilized PM01183 cake which was reconstituted with water for infusion to a concentration of 0.2 mg/mL. The PM01183 stock solution was further diluted in 5% glucose solution for injection to the dosing formulation concentrations. Temozolomide was provided as a solution prepared by diluting the product in DMSO 10% in 0.9% saline solution for injection to the target final concentration.
In these experiments, PM01183 and temozolomide treatments, as well as placebo, were administered as follows: PM01183, intravenously once per week up to 3 consecutive weeks, on Days 0, 7 and 14, temozolomide orally, in a daily basis during 8 consecutive days (Days 0 to 7), and placebo was administered following the same schedule as those provided for PM01183 and temozolomide. Dose level groups were administered either as single agents or in combination.
Comparison of the median tumor volume in the treatment groups (T) to the median tumor volume in the control group (T/C×100%) was used for evaluation of the antitumor efficacy.

SMILES: COc1ccc2[nH]c3c(c2c1)CCN[C@]31CS[C@@H]2c3c(OC(C)=O)c(C)c4c(c3[C@H](COC1=O)N1[C@@H]2[C@H]2c3c(cc(C)c(OC)c3O)C[C@@H]([C@@H]1O)N2C)OCO4 [PM01183]
- % T/C on day 0 (PM01183 0.045 mg/kg): 98.2%
- % T/C on day 2 (PM01183 0.045 mg/kg): 101.0%
- % T/C on day 4 (PM01183 0.045 mg/kg): 80.4%
- % T/C on day 7 (PM01183 0.045 mg/kg): 83.8%
- % T/C on day 9 (PM01183 0.045 mg/kg): 78.8%
- % T/C on day 11 (PM01183 0.045 mg/kg): 77.7%
- % T/C on day 14 (PM01183 0.045 mg/kg): 76.7%
- % T/C on day 16 (PM01183 0.045 mg/kg): 82.5%
- % T/C on day 0 (PM01183 0.09 mg/kg): 97.9%
- % T/C on day 2 (PM01183 0.09 mg/kg): 99.5%
- % T/C on day 4 (PM01183 0.09 mg/kg): 74.4%
- % T/C on day 7 (PM01183 0.09 mg/kg): 85.1%
- % T/C on day 9 (PM01183 0.09 mg/kg): 69.4%
- % T/C on day 11 (PM01183 0.09 mg/kg): 71.8%
- % T/C on day 14 (PM01183 0.09 mg/kg): 74.1%
- % T/C on day 16 (PM01183 0.09 mg/kg): 73.5%
- % T/C on day 0 (PM01183 0.135 mg/kg): 98.5%
- % T/C on day 2 (PM01183 0.135 mg/kg): 90.5%
- % T/C on day 4 (PM01183 0.135 mg/kg): 61.2%
- % T/C on day 7 (PM01183 0.135 mg/kg): 71.3%
- % T/C on day 9 (PM01183 0.135 mg/kg): 67.7%
- % T/C on day 11 (PM01183 0.135 mg/kg): 65.3%
- % T/C on day 14 (PM01183 0.135 mg/kg): 64.2%
- % T/C on day 16 (PM01183 0.135 mg/kg): 63.6%
- % T/C on day 0 (PM01183 0.18 mg/kg): 99.8%
- % T/C on day 2 (PM01183 0.18 mg/kg): 95.5%
- % T/C on day 4 (PM01183 0.18 mg/kg): 64.8%
- % T/C on day 7 (PM01183 0.18 mg/kg): 63.2%
- % T/C on day 9 (PM01183 0.18 mg/kg): 52.0%
- % T/C on day 11 (PM01183 0.18 mg/kg): 44.1%
- % T/C on day 14 (PM01183 0.18 mg/kg): 38.5%
- % T/C on day 16 (PM01183 0.18 mg/kg): 37.1%
